# According to publication PMC7423246, “A Peptide–Lectin Fusion Strategy for Developing a Glycan Probe for Use in Various Assay Formats” (Chemosensors (Basel, Switzerland), 2019):
# Biological target: T1, Pseudomonas fluorescens agglutinin (PFA) (Pseudomonas fluorescens, UniProt Q3KJ04)
# T1 construct: gene Pfl01_0508; 14 kDa
# T1 sequence (Q3KJ04 1-133): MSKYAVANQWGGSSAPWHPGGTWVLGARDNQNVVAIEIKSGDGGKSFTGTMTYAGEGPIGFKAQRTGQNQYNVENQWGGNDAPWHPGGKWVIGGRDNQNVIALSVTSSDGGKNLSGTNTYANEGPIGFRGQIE
# Assay: competitive ELISA on immobilized gp120
# Details: inhibition of PFA binding to immobilized gp120, 400 nM PFA, 0-2000 mM mannose, room temperature not stated for this step
compound,measurement,value
OC[C@H]1OC(O)[C@@H](O)[C@@H](O)[C@@H]1O (stereo partly shown) [mannose],onset of inhibition,~ 200 mM
